Measured values: patent US20260265267A1, “NOVEL COMPOUNDS WITH MTORC2-INHIBITORY ACTIVITY AND USES THEREOF” (Aliad Biopharma, priority 2023, published 2026)

What was measured:
[1] = target: T1, mTORC1 (Homo sapiens, UniProt P42345); assay: mTORC1 inhibitory activity in HeLa cells (p70S6K Thr389 phosphorylation, Western blot); type: cell-based; settings: for remaining activity at 40 µM: read-out: pThr389-S6K/S6K (% control); for inhibition at 40 µM: HeLa, 9 h, read-out: reduction in p70S6K Thr389 phosphorylation compared to the control group
T1 construct: the following experiments were conducted in HeLa cells; endogenous in cells; host or cells: HeLa
Description: (§1) Specifically, HeLa cells were cultured in a 5% CO2 incubator at 37° C. in DMEM (Dulbecco's Modified Eagles Media) medium supplemented with 10% FBS, penicillin (100 unit/ml), and streptomycin (100 μg/ml). Cultivation was started by seeding 4×10^5 cells in a 100 mm culture dish, and subculture was carried out every 3 days.
(§2) Human cell line HeLa cells were seeded in a 60 mm culture dish at a density of 2×10^5 cells/plate, and cultured for 24 hours. Then, HeLa cells were treated with 70 types of compounds at a concentration of 40 μM each for 9 hours. HeLa cells were washed twice with cold 1×PBS, and then lysed with 100 μl of RIPA buffer (50 mM Tris-HCl (pH7.4), 0.25% sodium deoxycholate, 50 mM NaF, 1% NP-40, 150 mM NaCl, 1 mM β-glycerophosphate, 1 mM PMSF, 1 mM NaVO4, 1 μg/ml leupeptin, 1 μg/ml pepstatin A, 10 nM calyculin A, 10 μg/ml aprotinin, 1 mM EDTA) to hemolyze the cell membrane. Then, the lysates were centrifuged at 12,000 rpm at 4° C. for 10 minutes to collect the supernatant, which is cell lysate. Protein concentration in the cell lysate was determined using the BCA protein assay kit (Thermo Fisher Scientific), and equal amounts of protein were separated by SDS-PAGE.
(§3) Western blot analysis was performed by the following method. […] After washing the membrane three times for 5 minutes each with TBS-T buffer, it was incubated with primary antibodies diluted in TBS-T buffer containing 5% skim milk or 5% BSA overnight at 4° C. Subsequently, the membrane was washed three times for 5 minutes each with TBS-T buffer, and then incubated with secondary antibodies diluted in TBS-T buffer containing 5% skim milk at room temperature for 30 minutes. The membrane was washed five times for 5 minutes each with TBS-T buffer containing 5% skim milk, and then the protein bands bound by the secondary antibody were detected using a chemiluminescence method. The primary antibodies used were Akt (cell signaling, #4691), pAkt(S473) (Cell signaling, #4060), p70S6K (Cell signaling, #S6198), pp70S6K(T389) (cell signaling, #9205S), LC3-II (MBL, #PM036), and the secondary antibodies used were HRP conjugated anti-rabbit (Jackson immunoresearch laboratory, #711-035-152) and HRP conjugated anti-mouse IgG (Jackson immunoresearch laboratory, #515-035-072).
As an mTORC1 activity indicator in HeLa cells, the level of p70S6K Thr389 phosphorylation was selected as a marker, and the level of phosphor-p70S6K (Thr389) signal measured by Western blot analysis was normalized to a level of pan-p70S6K signal, and then expressed as a percentage of the control group treated with only DMSO, which is a vehicle.

[2] = target: T2, mTORC2 (Homo sapiens, UniProt P42345); assay: mTORC2 inhibitory activity in HeLa cells (Akt Ser473 phosphorylation, Western blot); type: cell-based; settings: for selective inhibition of mTORC2: 40 μM, versus mTORC1; for selective inhibition of mTORC2 / remaining activity at 40 µM: 9 hours; for remaining activity at 40 µM: read-out: pSer473-AKT/AKT (% control); for inhibition at 40 µM: HeLa, 9 h, read-out: reduction in Akt Ser473 phosphorylation compared to the control group
T2 construct: the following experiments were conducted in HeLa cells; endogenous in cells; host or cells: HeLa
Description: as §1, §2, §3
As an mTORC2 activity indicator in HeLa cells, the level of Akt Ser473 phosphorylation was selected as a marker, and the phosphor-Akt (Ser473) signal obtained from Western blot analysis was normalized to the pan-Akt signal, and the data were expressed as a percentage relative to the control group treated with DMSO only, which is a vehicle.

[3] = system: LC3-II; assay: LC3-II formation as indicator of autophagy in HeLa cells (Western blot); type: cell-based, human; settings: Homo sapiens, 9 hours, read-out: LC3-II (% control)
Description: as §1, §2, §3
LC3-II formation was selected as an indicator of autophagy in HeLa cells, and the LC3-II signal obtained from Western blot analysis was normalized to the pan-Akt signal and the data were expressed as a percentage relative to the control group treated with DMSO only, which is a vehicle.

Compound | remaining activity at 40 µM ([1]; 9 hours) | selective inhibition of mTORC2 [2] | remaining activity at 40 µM [2] | inhibition at 40 µM [2] | inhibition at 40 µM [1] | increase in S6K Thr389 phosphorylation ([1]; 40 μM, 9 hours) | activity at 40 µM [3]
O=C1c2cc(F)ccc2COc2cc3c(cc21)OCO3 [HN2203, 9-fluoro[2]benzoxepino[3,4-f]-1,3-benzodioxol-11(6H)-one] | 179% | selectively inhibit mTORC2 | 28% | > 20% | – | – | 119%
CN(C)c1cc2c(cc1F)C(=O)c1cc3c(cc1OC2)OCO3 [HN2209, 8-(dimethylamino)-9-fluoro[2]benzoxepino[3,4-f]-1,3-benzodioxol-11(6H)-one] | 191% | selectively inhibit mTORC2 | 54% | > 20% | – | – | 124%
O=C1c2cc(F)c(N3CCCCC3)cc2COc2cc3c(cc21)OCO3 [HN2211, 8-(piperidinyl)-9-fluoro[2]benzoxepino[3,4-f]-1,3-benzodioxol-11(6H)-one] | 77% | – | 118% | – | > 20% | – | 122%
O=C1c2cc(-c3ccc(Cl)cc3)ccc2COc2cc3c(cc21)OCO3 [HN2214, 9-(4-chlorophenyl)[2]benzoxepino[3,4-f]-1,3-benzodioxol-11(6H)-one] | 99% | selectively inhibit mTORC2 | 67% | > 20% | – | – | 154%
O=C1c2cc(-c3ccoc3)ccc2COc2cc3c(cc21)OCO3 [HN2216, 9-(3-furanyl)[2]benzoxepino[3,4-f]-1,3-benzodioxol-11(6H)-one] | 121% | selectively inhibit mTORC2 | 64% | > 20% | – | 21% | 99%
Cc1ccc(-c2ccc3c(c2)C(=O)c2cc4c(cc2OC3)OCO4)cc1 [HN2217, 9-(p-tolyl)[2]benzoxepino[3,4-f]-1,3-benzodioxol-11(6H)-one] | 224% | selectively inhibit mTORC2 | 38% | > 20% | – | – | 149%
O=C1c2cc(F)c(N3CCC(Cc4ccccc4)CC3)cc2COc2cc3c(cc21)OCO3 [HN2222, 8-(4-benzylpiperidin-1-yl)-9-fluoro[2]benzoxepino[3,4-f]-1,3-benzodioxol-11(6H)-one] | 95% | selectively inhibit mTORC2 | 69% | > 20% | – | – | 89%
O=C1c2cc3c(cc2OCc2c1ccc(F)c2F)OCO3 [HN2225, 7,8-difluoro[2]benzoxepino[3,4-f]-1,3-benzodioxol-11(6H)-one] | 100% | selectively inhibit mTORC2 | 66% | > 20% | – | – | 100%
O=C1c2cc3c(cc2OCc2c1ccc(NC1CCCCC1)c2F)OCO3 [HN2231, 8-(cyclohexylamino)-7-fluoro[2]benzoxepino[3,4-f]-1,3-benzodioxol-11(6H)-one] | 49% | – | 100% | – | > 20% | – | 122%
O=C1c2cc3c(cc2OCc2c1ccc(N1CCC(Cc4ccccc4)CC1)c2F)OCO3 [HN2232, 8-(4-benzylpiperidin-1-yl)-7-fluoro[2]benzoxepino[3,4-f]-1,3-benzodioxol-11(6H)-one] | 136% | selectively inhibit mTORC2 | 48% | > 20% | – | – | 64%
COc1ccc(CCNc2ccc3c(c2F)COc2cc4c(cc2C3=O)OCO4)cc1 [HN2233, 8-((4-methoxyphenethyl)amino)-7-fluoro[2]benzoxepino[3,4-f]-1,3-benzodioxol-11(6H)-one] | 107% | selectively inhibit mTORC2 | 74% | > 20% | – | – | 121%

Second part, led by results:

remaining activity at 40 µM ([1]; 9 hours) | selective inhibition of mTORC2 [2] | remaining activity at 40 µM [2] | inhibition at 40 µM [2] | inhibition at 40 µM [1] | increase in S6K Thr389 phosphorylation ([1]; 40 μM, 9 hours) | Compound | activity at 40 µM [3]
81% | selectively inhibit mTORC2 | 54% | > 20% | – | – | CS(=O)(=O)Nc1cc2c(cc1F)C(=O)c1cc3c(cc1OC2)OCO3 [HN2301, N-(9-fluoro-11-oxo-6,11-dihydro-[1,3]dioxolo[4′,5′:4,5]benzo[1,2-b]benzo[e]oxepin-8-yl)methanesulfonamide] | 96%
122% | selectively inhibit mTORC2 | 73% | > 20% | – | – | CS(=O)(=O)Nc1ccc2c(c1F)COc1cc3c(cc1C2=O)OCO3 [HN2302, N-(7-fluoro-11-oxo-6,11-dihydro-[1,3]dioxolo[4′,5′:4,5]benzo[1,2-b]benzo[e]oxepin-8-yl)methanesulfonamide] | 108%
64% | – | 47% | > 20% | > 20% | – | COc1cc2c(cc1OC)C(=O)c1cc(-c3cc(OC)c(OC)c(OC)c3)ccc1CS2 [HN2305, 2,3-dimethoxy-9-(3,4,5-trimethoxyphenyl)dibenzo[b,e]thiepin-11(6H)-one] | –
257% | selectively inhibit mTORC2 | 64% | > 20% | – | – | COc1ccc(-c2ccc3c(c2)C(=O)c2cc(OC)c(OC)cc2SC3)cc1 [HN2306, 2,3-dimethoxy-9-(4-methoxyphenyl)dibenzo[b,e]thiepin-11(6H)-one] | –
106% | selectively inhibit mTORC2 | 72% | > 20% | – | – | COc1cc2c(cc1OC)C(=O)c1cc(-c3ccc(C)cc3)ccc1CS2 [HN2307, 2,3-dimethoxy-9-(p-tolyl)dibenzo[b,e]thiepin-11(6H)-one] | –
106% | selectively inhibit mTORC2 | 66% | > 20% | – | – | COc1cc2c(cc1OC)C(=O)c1cc(-c3ccc(Cl)cc3)ccc1CS2 [HN2309, 9-(4-chlorophenyl)-2,3-dimethoxydibenzo[b,e]thiepin-11(6H)-one] | –
223% | selectively inhibit mTORC2 | 28% | > 20% | – | – | COc1cc2c(cc1OC)C(=O)c1cc(F)c(N3CCCCC3)cc1CC2 [HN2315, 3-fluoro-7,8-dimethoxy-2-(piperidin-1-yl)-10,11-dihydro-5H-dibenzo[a,d][7]annulen-5-one] | 620%
38% | – | 20% | > 20% | > 20% | – | COc1cc2c(cc1OC)C(=O)c1cc(F)c(N3CCN(c4ccccc4)CC3)cc1CC2 [HN2316, 3-fluoro-7,8-dimethoxy-2-(4-phenylpiperazin-1-yl)-10,11-dihydro-5H-dibenzo[a,d][7]annulen-5-one] | 256%
69% | – | 107% | – | > 20% | – | COc1cc2c(cc1OC)C(=O)c1cc(F)c(NCc3ccccc3)cc1CC2 [HN2317, 2-(benzylamino)-3-fluoro-7,8-dimethoxy-10,11-dihydro-5H-dibenzo[a,d][7]annulen-5-one] | –
